Key:
HIV-1 M184V = conditions: cited from earlier work; for Resistance conferred by M184V as compared to WT: single amino acid residue mutation M184V
WT HIV-1 RT = target: T1, WT HIV-1 RT (Human immunodeficiency virus type 1 group M subtype B, UniProt P03366, Q857C); test: Pre-steady-state single-turnover kinetics of nucleotide incorporation by WT HIV-1 RT; format: biochemical; conditions: for Kd: 18/26-mer dsDNA, 37 °C, read-out: Kd (apparent equilibrium dissociation constant); for Tighter binding (Kd) compared to natural dCTP: Kd dCTP / Kd analog
T1 construct: HIV-1 RT p66 and p51 subunits were expressed and purified as described previously; made in house
Description: (§1) Previous kinetic studies[16],[18],[20],[22]–[26] have aimed at understanding the efficiency of incorporation for (−)-FTC-TP or (−)-3TC-TP, how they compete against dCTP, and the effect of resistance mutations, such as M184V. As in our previous work[20],[25],[26], single-turnover kinetic assays were performed by rapidly mixing a pre-incubating solution of 120 nM HIV-1 RT (WT or M184V) and 30 nM 5ʹ-[^32P]-labeled 18/26-mer dsDNA substrate (Methods) with varying concentrations of dCTP, or an active metabolite of NRTIs for different times, before being quenched by 0.37 M EDTA. Representative kinetic plots displaying M184V-catalyzed incorporation of (−)-FTC-TP onto 18/26-mer dsDNA substrate are shown in Fig. 2. […] We determined the pre-steady-state kinetic parameters of maximal nucleotide incorporation rate constants (kp) and apparent equilibrium dissociation constants (Kd) for dCTP, (+)-FTC-TP, (−)-FTC-TP, (+)-3TC-TP and (−)-3TC-TP with WT or M184V HIV-1 RT (Table 1). […] The resulting selectivity factors ((kp/Kd)dCTP/(kp/Kd)NRTI) were determined to be only 1.9 and 7.0-fold higher for dCTP over (−)-FTC-TP and (−)-3TC-TP, respectively.
(§2) HIV-1 RT (120 nM) and 5ʹ-[^32P]-labeled 18/26-mer DNA (30 nM; DNA sequence shown above the 18mer primer without chemical modification) were pre-incubated at 37 °C for 5 min in reaction buffer containing 50 mM Tris-HCl (pH, 7.9), 10 mM MgCl2, 50 mM NaCl, 0.1 mM EDTA, 10% glycerol, 5 mM DTT, and 0.1 µg/mL BSA (all concentrations are final upon mixing). The reactions were initiated by rapidly mixing with varying concentrations of dCTP, FTC-TP, or 3TC-TP on a rapid chemical-quench flow apparatus (KinTek) and quenched with 0.37 M EDTA at various times. The DNA products were analyzed by sequencing gel electrophoresis (17% polyacrylamide, 8 M Urea), and quantitated using a Typhoon Trio (GE Healthcare) and ImageQuant software (Molecular Dynamics). The kinetic data were fit using non-linear regression software KaleidaGraph (Synergy) to a single-exponential equation Product=A1−exp−kobst, where A and kobs represent the reaction amplitude and observed nucleotide incorporation rate constant, respectively. Values for kobs were then plotted against the respective dNTP (or an NRTI triphosphate) concentration and each plot was fit to a hyperbolic equation kobs=kpdNTP∕Kd+dNTP, where kp is the maximal nucleotide incorporation rate constant and Kd is the apparent equilibrium dissociation constant for the binding of dNTP (or an NRTI triphosphate) to the RT and DNA complex. Each set of kinetic parameters (kp, Kd, kp/Kd) are derived from 8 individual experiments where the concentration of nucleotide is variable (i.e. 8 distinct concentrations of dCTP or NRTI). All reported error values are derived from data fitting using non-linear regression software KaleidaGraph (Synergy).

M184V HIV-1 RT [1] = target: T2, M184V HIV-1 RT (Human immunodeficiency virus type 1 group M subtype B, UniProt P03366, M783V/Q857C); test: Pre-steady-state single-turnover kinetics of nucleotide incorporation by M184V HIV-1 RT; format: biochemical
T2 construct: HIV-1 RT p66 and p51 subunits were expressed and purified as described previously; made in house
Description: as §1
(§3) Fig. 2 Determination of kinetic parameters for (−)-FTC-TP incorporation onto 18/26-mer dsDNA catalyzed by the M184V mutant of HIV-1 RT. a A pre-incubated solution of 120 nM M184V and 30 nM 5′-[^32P]-labeled 18/26-mer was mixed with increasing concentrations of (−)-FTC-TP (3.75 µM, ●; 7.5 µM, [drawing 1]; 15 µM, [drawing 2]; 30 µM, x; 60 µM, [drawing 3]; 120 µM, [drawing 4]; 240 µM, [drawing 5]; 480 µM, [drawing 6] ) for various times at 37 °C before being quenched with 0.37 M EDTA.
as §2

M184V HIV-1 RT [2] = test: as above; format: biochemical; conditions: M184V vs WT RT
Description: as §1, §3, §2

HIV virus = conditions: initial cell-based screening; cited from earlier work
HIV [3] = conditions: clinical trials, monotherapy; cited from earlier work
M184V mutant RT = conditions: up; cited from earlier work
HIV [4] = tested on: HIV; parameters: method as in PMID 19225726; conditions: reportedly; cited from earlier work

Nc1ccn([C@H]2CS[C@@H](CO)O2)c(=O)n1 [3TC, 2ʹ,3ʹ-dideoxy-3ʹ-thiacytidine]
Reduction in potency by M184V in cell-based assays (HIV-1 M184V): > 500 fold
Resistance conferred by M184V as compared to WT (HIV-1 M184V): > 500 fold

Nc1ccn([C@H]2CS[C@@H](COP(=O)(O)OP(=O)(O)OP(=O)(O)O)O2)c(=O)n1 [(+)-3TC-TP]
Kd (WT HIV-1 RT; WT HIV-1 RT): 0.202 ± 0.004 µM
Kd (M184V HIV-1 RT [1]): 5.4 ± 1.2 µM

Nc1nc(=O)n([C@H]2CS[C@@H](COP(=O)(O)OP(=O)(O)OP(=O)(O)O)O2)cc1F [(+)-FTC-TP]
Kd (WT HIV-1 RT; WT HIV-1 RT): 0.19 ± 0.02 µM
Kd (M184V HIV-1 RT [1]): 1.8 ± 0.3 µM

Nc1ccn([C@@H]2CS[C@H](COP(=O)(O)OP(=O)(O)OP(=O)(O)O)O2)c(=O)n1 [(−)-3TC-TP]
Kd (WT HIV-1 RT; WT HIV-1 RT): 0.25 ± 0.01 µM
Higher Kd value (lower binding affinity) over (−)-FTC-TP (WT HIV-1 RT; WT RT): 2.5 fold
Tighter binding (Kd) compared to natural dCTP (WT HIV-1 RT; WT RT): 25 fold
Kd (M184V HIV-1 RT [1]): 53 ± 4 µM
Reduction of binding affinity (higher Kd) of M184V compared to WT (M184V HIV-1 RT [2]): 212 fold

Nc1nc(=O)n([C@@H]2CS[C@H](COP(=O)(O)OP(=O)(O)OP(=O)(O)O)O2)cc1F [(−)-FTC-TP]
Binding affinity increase (tighter binding) over (−)-3TC-TP (WT HIV-1 RT; WT HIV-1 RT): 2.5 fold
Higher incorporation efficiency (kp/Kd) than (−)-3TC-TP (WT HIV-1 RT; WT HIV-1 RT): 3.7 fold
Kd (WT HIV-1 RT; WT HIV-1 RT): 0.1 ± 0.01 µM
Tighter binding (Kd) compared to natural dCTP (WT HIV-1 RT; WT RT): 63 fold
Kd (M184V HIV-1 RT [1]): 28 ± 2 µM
Reduction of binding affinity (higher Kd) of M184V compared to WT (M184V HIV-1 RT [2]): 280 fold

Nc1nc(=O)n([C@H]2CS[C@@H](CO)O2)cc1F [FTC, 2ʹ,3ʹ-dideoxy-5-fluoro-3ʹ-thiacytidine]
Cytotoxicity versus corresponding (+)-stereoisomer (HIV virus): less cytotoxic
Potency against the HIV virus versus corresponding (+)-stereoisomer (HIV virus): more potent
Reduction in viral HIV RNA (HIV [3]): 1.7 log
Reduction in potency by M184V in enzyme-based assays (M184V mutant RT): > 300 fold
Reduction in potency by M184V in cell-based assays (HIV-1 M184V): > 500 fold
Resistance conferred by M184V as compared to WT (HIV-1 M184V): > 500 fold

Cc1cn([C@@H]2C[C@@H](O)[C@H](CO)O2)c(=O)[nH]c1=O [Telbivudine]
Inhibition of HIV (HIV [4]): does not inhibit HIV

Nc1ccn([C@H]2C[C@H](O)[C@@H](COP(=O)(O)OP(=O)(O)OP(=O)(O)O)O2)c(=O)n1 [dCTP, deoxycytidine triphosphate]
Kd (WT HIV-1 RT; WT HIV-1 RT): 6.3 ± 0.2 µM
Kd (M184V HIV-1 RT [1]): 8.9 ± 1 µM

Source: PMC6910994, “Elucidating molecular interactions of L-nucleotides with HIV-1 reverse transcriptase and mechanism of M184V-caused drug resistance” (Communications Biology, 2019)
